Measurements published in US20260297095A1, “NOVEL PYRROLOTRIAZINE DERIVATIVE AND USE THEREOF” (Pelemed Co., Ltd., priority 2024, published 2026).

target: YES1 kinase (Homo sapiens, UniProt P07947); test: YES1 kinase inhibition, ADP Glo assay (Promega); assay type: biochemical; conditions: compound 10 nM; read-out: YES1 enzyme, % inhibition, 10 nM
Description: To evaluate the inhibitory activity against YES1 kinase of the compound according to the present invention, ADP Glo assay (Promega) was used, and the following method was performed with reference to the Promega kinase enzyme system protocol. To proceed with the experiment, buffers A-F and compound dilution plates were required.
To prepare A.4X reaction buffer, 800 μl of 5X reaction buffer and 200 μl of distilled water were used. To prepare B.4X kinase buffer, 996.6 μl of A.4X reaction buffer, 2 μl of 0.1M DTT, and 3.2 μl of 2.5M MnCl2 were added and mixed. To prepare C.1X kinase buffer (containing 5% DMSO) used for compound dilution, 250 μl of B.4X kinase buffer, 700 μl of distilled water, and 50 μl of DMSO were added, so that the final DMSO concentration became 5%. Then, 10 mM compounds were diluted 100-fold to prepare 100 μM solutions, and then D.5X inhibitor solution was prepared so that the compound concentration became 5 uM. Using a 96-well plate, 5 μM compounds were 3-fold diluted using C.1X kinase buffer (containing 5% DMSO) to prepare compound plates with concentrations ranging from 0.25 μM to 5 μM. The resulting plates were stored at room temperature. To prepare E. 2.5X ATP/substrate mixture, 50 μl of B.4X kinase buffer, 50 μl of […], and 100 μl of substrate were mixed. To prepare F YES1 kinase enzyme solution, 35 μl of B.4X kinase buffer, 0.4 μl of YES1 enzyme, and 104.6 μl of distilled water were used. Once the diluted compound plates, ATP/substrate mixture, and YES1 kinase solution were all prepared, 3 μL each was transferred from the diluted compound plate to a luciferase 96-well white plate (Since the total volume of the ATP/substrate and YES1 kinase solution that reacts with the compound is 15 μL, the compounds were diluted 5-fold, making the final compound concentration 0.05 μM-1 μM). Then, 6 μL of F. YES1 Kinase Enzyme Solution was transferred to each well, pipetted 10 times to mix, and incubated at room temperature in a shaker for 10 minutes. Next, 6 μL of E. 2.5X ATP/Substrate Mixture was transferred to each well, pipetted 10 times to mix, and centrifuged at 12,000 rpm for 5 minutes. The plate was then incubated in a shaker at room temperature for 40 minutes. After that, 15 μL of ADP-Glo Reagent, dissolved at room temperature, was added to each well, pipetted 10 times, and incubated in a shaker at room temperature for 40 minutes. Finally, 30 μL of Kinase Detection Reagent, dissolved at room temperature, was added, pipetted 10 times, incubated in a shaker at room temperature for 30 minutes. Luminescence was measured using a luminescence plate reader. Then, the background value was subtracted from all measured values, and the YES1 kinase activity at compound concentrations of 1 nM, 10 nM, and 100 nM was calculated. The measured values were calculated as percentages using the average value of the negative control. Graphs were drawn using GraphPad Prism, and the enzyme activity was calculated as a percentage of YES1 kinase inhibition at compound concentrations of 1 nM, 10 nM, and 100 nM. IC50 values were obtained using Microsoft Excel.

Chain of YES1 kinase (P07947 whole entry): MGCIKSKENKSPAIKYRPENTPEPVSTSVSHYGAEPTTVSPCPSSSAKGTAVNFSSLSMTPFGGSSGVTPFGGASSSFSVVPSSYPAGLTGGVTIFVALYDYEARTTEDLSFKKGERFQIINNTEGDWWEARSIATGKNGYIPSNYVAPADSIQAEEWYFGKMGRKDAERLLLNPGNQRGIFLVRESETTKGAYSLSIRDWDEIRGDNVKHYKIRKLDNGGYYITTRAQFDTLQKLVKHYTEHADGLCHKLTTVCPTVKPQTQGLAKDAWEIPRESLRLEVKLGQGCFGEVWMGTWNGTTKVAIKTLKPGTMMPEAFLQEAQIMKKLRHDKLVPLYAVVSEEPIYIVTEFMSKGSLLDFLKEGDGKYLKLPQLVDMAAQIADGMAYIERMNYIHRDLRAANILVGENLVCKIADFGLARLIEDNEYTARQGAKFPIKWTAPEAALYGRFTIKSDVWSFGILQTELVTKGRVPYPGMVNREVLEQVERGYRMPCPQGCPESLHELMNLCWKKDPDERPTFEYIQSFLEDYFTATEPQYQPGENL

| inhibition at 0.01 µM [%] | SMILES |
| --- | --- |
| 51 | COc1cc(-c2cc(N3CC[C@@H](N(C)C)[C@H](F)C3)n3ncnc(N)c23)ccc1NC(=O)OC(C)(C)C [Example 32, tert-butyl (4-(4-amino-7-((3R,4R)-4-(dimethylamino)-3-fluoropiperidin-1-yl)pyrrolo[2,1-f][1,2,4]triazin-5-yl)-2-methoxyphenyl)carbamate] |
| 37 | COc1cc(-c2cc(N3C[C@H]4CN(C)C[C@H]4C3)n3ncnc(N)c23)ccc1NC(=O)OC(C)(C)C [Example 34, tert-butyl (4-(4-amino-7-((3aR,6aS)-5-methylhexahydropyrrolo[3,4-c]pyrrol-2(1H)-yl)pyrrolo[2,1-f][1,2,4]triazin-5-yl)-2-methoxyphenyl)carbamate] |

same assay, conditions: compound 100 nM; read-out: YES1 enzyme, % inhibition, 100 nM

| inhibition at 0.1 µM [%] | SMILES |
| --- | --- |
| 82 | COc1cc(-c2cc(N3CC[C@@H](N(C)C)[C@H](F)C3)n3ncnc(N)c23)ccc1NC(=O)OC(C)(C)C [Example 32, tert-butyl (4-(4-amino-7-((3R,4R)-4-(dimethylamino)-3-fluoropiperidin-1-yl)pyrrolo[2,1-f][1,2,4]triazin-5-yl)-2-methoxyphenyl)carbamate] |
| 74 | COc1cc(-c2cc(N3C[C@H]4CN(C)C[C@H]4C3)n3ncnc(N)c23)ccc1NC(=O)OC(C)(C)C [Example 34, tert-butyl (4-(4-amino-7-((3aR,6aS)-5-methylhexahydropyrrolo[3,4-c]pyrrol-2(1H)-yl)pyrrolo[2,1-f][1,2,4]triazin-5-yl)-2-methoxyphenyl)carbamate] |

system: KYSE-70 esophageal cancer cell line; test: Cell growth inhibition of KYSE-70 (Sulforhodamine B); assay type: cell-based; conditions: Homo sapiens; KYSE-70, 72 hours; read-out: KYSE70 GI50
Description: The cell line according to the present invention was selected as KYSE-70, an esophageal cancer cell line in which YES1 is amplified. The evaluation of cell growth inhibition was performed as follows.
KYSE-70 was cultured in RPMI-1640 (Capricorn) supplemented with 10% FBS (Cellgro). The cells were seeded 24 hours prior to compound treatment, into three 96-well F-bottom clear plates (Greiner), with 7,500 cells per well in 180 μL of medium. The 10 mM compound was diluted 100-fold in medium to prepare a 100 μM compound, which was then placed into a 96-well plate and further 3-fold diluted in medium to prepare a compound plate with concentrations ranging from 0.046 μM to 100 μM. 20 μL of each compound from the drug plate was added to the cell-seeded plates to achieve final concentrations of 0.0046 μM to 10 μM. At the same time, 50 μL of 33% trichloroacetic acid was injected into one plate and the plate was fixed by incubating at 4° C. This was referred to as the Do plate. Viable cells were measured 72 hours after compound treatment by injecting 50 μL of 33% trichloroacetic acid and incubating at 4° C. for more than 1 hour to fix the cells. This was referred to as the D3 plate. After the Do plate and D3 plates were washed 5 times with sterile water, 100 μL of 0.04% Sulforhodamine B solution in 1% acetic acid was added and reacted for 1 hour to stain the cells. After staining, the plates were washed 4 times with 1% acetic acid solution and completely dried. Then, the Sulforhodamine B bound to cellular proteins was completely dissolved with 10 mM Tris base solution (pH 10.5). The absorbance was measured at a wavelength of 510 nm using a microplate reader (TECAN, sunrise microplate reader). The analysis was performed using GraphPad Prism. The average absorbance of the Do plate was set to 0%, and the average absorbance of the negative control of the D3 plate was set to 100%, from which a graph was drawn and the GI50 values were calculated. Each test was performed twice.

| GI50 [nM] | SMILES |
| --- | --- |
| ≤ 100 | CNC1CCN(c2c(C)c(-c3ccc(NC(=O)OC(C)(C)C)c(OC)c3)c3c(N)ncnn23)CC1 [Example 75, tert-butyl (4-(4-amino-6-methyl-7-(4-(methylamino)piperidin-1-yl)pyrrolo[2,1-f][1,2,4]triazin-5-yl)-2-methoxyphenyl)carbamate] |
| ≤ 100 | CNCCC1CCN(c2c(F)c(-c3ccc(NC(=O)OC(C)(C)C)c(OC)c3)c3c(N)ncnn23)CC1 [Example 131, tert-butyl (4-(4-amino-6-fluoro-7-(4-(2-(methylamino)ethyl)piperidin-1-yl)pyrrolo[2,1-f][1,2,4]triazin-5-yl)-2-methoxyphenyl)carbamate] |
| 100 to 1000 | CC1(OC(=O)Nc2ccc(-c3cc(N4CCC(N)CC4)n4ncnc(N)c34)c3c2OCO3)CC1 [Example 70, 1-methylcyclopropyl (7-(4-amino-7-(4-aminopiperidin-1-yl)pyrrolo[2,1-f][1,2,4]triazin-5-yl)benzo[d][1,3]dioxol-4-yl)carbamate] |
| 100 to 1000 | COc1cc(-c2cc(N3CCC(N)CC3)n3ncnc(N)c23)ccc1NC(=O)OC(C)(C)C(F)(F)F [Example 72, 1,1,1-trifluoro-2-methylpropan-2-yl (4-(4-amino-7-(4-aminopiperidin-1-yl)pyrrolo[2,1-f][1,2,4]triazin-5-yl)-2-methoxyphenyl)carbamate] |
| ≤ 100 | COc1cc(-c2c(C)c(N3CCC(N(C)C)CC3)n3ncnc(N)c23)ccc1NC(=O)OC(C)(C)C [Example 76, tert-butyl (4-(4-amino-7-(4-(dimethylamino)piperidin-1-yl)-6-methylpyrrolo[2,1-f][1,2,4]triazin-5-yl)-2-methoxyphenyl)carbamate] |
| ≤ 100 | CNCCC1CCN(c2cc(-c3ccc(NC(=O)OC(C)(C)CF)c(OC)c3)c3c(N)ncnn23)CC1 [Example 66, 1-fluoro-2-methylpropan-2-yl (4-(4-amino-7-(4-(2-(methylamino)ethyl)piperidin-1-yl)pyrrolo[2,1-f][1,2,4]triazin-5-yl)-2-methoxyphenyl)carbamate] |
| ≤ 100 | CCC1(N)CCN(c2cc(-c3ccc(NC(=O)OC(C)(C)C)c(OC)c3)c3c(N)ncnn23)CC1 [Example 82, tert-butyl (4-(4-amino-7-(4-amino-4-ethylpiperidin-1-yl)pyrrolo[2,1-f][1,2,4]triazin-5-yl)-2-methoxyphenyl)carbamate] |
| 100 to 1000 | CNC1CCN(CCc2cc(-c3ccc(NC(=O)OC(C)(C)CF)c(OC)c3)c3c(N)ncnn23)CC1 [Example 67, 1-fluoro-2-methylpropan-2-yl (4-(4-amino-7-(2-(4-(methylamino)piperidin-1-yl)ethyl)pyrrolo[2,1-f][1,2,4]triazin-5-yl)-2-methoxyphenyl)carbamate] |
| ≤ 100 | CNCCC1CCN(c2c(C)c(-c3ccc(NC(=O)OC(C)(C)CF)c(OC)c3)c3c(N)ncnn23)CC1 [Example 63, 1-fluoro-2-methylpropan-2-yl (4-(4-amino-6-methyl-7-(4-(2-(methylamino)ethyl)piperidin-1-yl)pyrrolo[2,1-f][1,2,4]triazin-5-yl)-2-methoxyphenyl)carbamate] |
| 100 to 1000 | COc1cc(-c2c(I)c(N3CCC(N)CC3)n3ncnc(N)c23)ccc1NC(=O)OC(C)(C)C [Example 126, tert-butyl (4-(4-amino-7-(4-aminopiperidin-1-yl)-6-iodopyrrolo[2,1-f][1,2,4]triazin-5-yl)-2-methoxyphenyl)carbamate] |
| > 10000 | COc1cc(-c2cc(N3CCC(C(N)=O)CC3)n3ncnc(N)c23)ccc1NC(=O)OC(C)(C)C [Example 97, tert-butyl (4-(4-amino-7-(4-carbamoylpiperidin-1-yl)pyrrolo[2,1-f][1,2,4]triazin-5-yl)-2-methoxyphenyl)carbamate] |
| > 10000 | COc1cc(-c2cc(N3CCC(C)(NC(C)=O)CC3)n3ncnc(N)c23)ccc1NC(=O)OC(C)(C)C [Example 96, tert-butyl (4-(4-amino-7-(4-acetamido-4-methylpiperidin-1-yl)pyrrolo[2,1-f][1,2,4]triazin-5-yl)-2-methoxyphenyl)carbamate] |
| ≤ 100 | COc1cc(-c2c(C)c(N3CCC(N)CC3)n3ncnc(N)c23)ccc1NC(=O)OC(C)(C)CF [Example 60, 1-fluoro-2-methylpropan-2-yl (4-(4-amino-7-(4-aminopiperidin-1-yl)-6-methylpyrrolo[2,1-f][1,2,4]triazin-5-yl)-2-methoxyphenyl)carbamate] |
| ≤ 100 | CNC1CCN(CCc2c(C)c(-c3ccc(NC(=O)OC(C)(C)CF)c(OC)c3)c3c(N)ncnn23)CC1 [Example 64, 1-fluoro-2-methylpropan-2-yl (4-(4-amino-6-methyl-7-(2-(4-(methylamino)piperidin-1-yl)ethyl)pyrrolo[2,1-f][1,2,4]triazin-5-yl)-2-methoxyphenyl)carbamate] |
| 100 to 1000 | COc1cc(-c2cc(N3CCC(N)CC3)n3ccnc(N)c23)ccc1NC(=O)OC(C)(C)C [Example 132, tert-butyl (4-(1-amino-6-(4-aminopiperidin-1-yl)pyrrolo[1,2-a]pyrazin-8-yl)-2-methoxyphenyl)carbamate] |
| ≤ 100 | COc1cc(-c2cc(N3CCC(N)CC3)n3ncnc(N)c23)ccc1NC(=O)OC1(C)CC1 [Example 71, 1-methylcyclopropyl (4-(4-amino-7-(4-aminopiperidin-1-yl)pyrrolo[2,1-f][1,2,4]triazin-5-yl)-2-methoxyphenyl)carbamate] |
| 100 to 1000 | CNC(=O)C1CCN(c2cc(-c3ccc(NC(=O)OC(C)(C)C)c(OC)c3)c3c(N)ncnn23)CC1 [Example 95, tert-butyl (4-(4-amino-7-(4-(methylcarbamoyl)piperidin-1-yl)pyrrolo[2,1-f][1,2,4]triazin-5-yl)-2-methoxyphenyl)carbamate] |
